Reference: patent publication EP4745153A1, “GLP-1, GIP AND GCG RECEPTOR […] USE THEREOF” (Jiangsu Hengrui Pharmaceuticals Co., Ltd., priority 2023, dated 2025)
Starred links: 1 amine or outer side, 2 acyl side, 3 side chain; linkers in the order of their positions; H or OH if unused. Non-standard residues stand in square brackets, D forms with d. Residues, ends and D or L forms follow the SMILES beside them. Groups on a side chain read outwards from the residue. *: point of attachment. C20 diacid = O=C(O)CCCCCCCCCCCCCCCCCCC(=O)*; γGlu = O=C(O)[C@H](CCC(=O)[*:2])N[*:1]; AEEA = NCCOCCOCC(=O)O; Aib = CC(C)(N)C(=O)O

How the values were obtained:
human GLP-1R = molecular target: T1, human GLP-1R (Homo sapiens, UniProt P43220); experiment: cAMP HTRF agonist activity assay in CHO-K1 cells expressing GLP-1R; assay type: cell-based; conditions: read-out: Activity against human GLP-1R (EC50 nM); also: 5% FBS, 0.1% Casein
T1 construct: expressed in transfected cells; host or cells: CHO-K1 clonal cell line
T1 sequence (P43220 24-463): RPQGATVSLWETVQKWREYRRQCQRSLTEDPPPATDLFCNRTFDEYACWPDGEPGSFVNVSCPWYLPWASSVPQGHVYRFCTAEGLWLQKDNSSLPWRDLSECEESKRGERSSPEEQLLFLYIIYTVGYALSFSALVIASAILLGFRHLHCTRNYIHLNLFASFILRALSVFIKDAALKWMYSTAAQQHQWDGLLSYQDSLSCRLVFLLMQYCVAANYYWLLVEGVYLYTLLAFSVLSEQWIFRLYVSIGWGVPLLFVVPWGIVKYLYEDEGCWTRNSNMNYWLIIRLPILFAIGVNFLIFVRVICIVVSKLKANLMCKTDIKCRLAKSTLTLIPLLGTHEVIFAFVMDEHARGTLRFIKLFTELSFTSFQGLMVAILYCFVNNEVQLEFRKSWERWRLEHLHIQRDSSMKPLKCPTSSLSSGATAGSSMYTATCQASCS
Description: Functional activity was determined in CHO-K1 clonal cell lines expressing GIPR, GLP-1R, and GCGR. […] Each recipient cell (5000 cells/well) was added to an SV 96-well plate (Cisbio, 66PL96025) and incubated with the prepared polypeptide at 37°Cfor 30 min. The resulting increase in intracellular cAMP was quantitatively measured using the cAMP-GS dynamic HTRF assay kit (Cisbio, 62AM4PEJ). Briefly, the intracellular cAMP levels were determined by adding cAMP-d2 conjugate in cell lysis buffer, followed by the antibody anti-cAMP-Eu cryptate (also in cell lysis buffer).
Using the maximum response percentage vs. the added polypeptide concentration, the relative EC50 values were derived through nonlinear regression analysis and fitted to a four-parameter logarithmic equation. For specific data, refer to Tables 7-1 to 7-8 below. […]

human GIPR = molecular target: T2, human GIPR (Homo sapiens, UniProt P48546); experiment: cAMP HTRF agonist activity assay in CHO-K1 cells expressing GIPR; assay type: cell-based; conditions: read-out: Activity against human GIPR (EC50 nM); also: 5% FBS, 0.1% Casein
T2 construct: expressed in transfected cells; host or cells: CHO-K1 clonal cell line
T2 sequence (P48546 22-466): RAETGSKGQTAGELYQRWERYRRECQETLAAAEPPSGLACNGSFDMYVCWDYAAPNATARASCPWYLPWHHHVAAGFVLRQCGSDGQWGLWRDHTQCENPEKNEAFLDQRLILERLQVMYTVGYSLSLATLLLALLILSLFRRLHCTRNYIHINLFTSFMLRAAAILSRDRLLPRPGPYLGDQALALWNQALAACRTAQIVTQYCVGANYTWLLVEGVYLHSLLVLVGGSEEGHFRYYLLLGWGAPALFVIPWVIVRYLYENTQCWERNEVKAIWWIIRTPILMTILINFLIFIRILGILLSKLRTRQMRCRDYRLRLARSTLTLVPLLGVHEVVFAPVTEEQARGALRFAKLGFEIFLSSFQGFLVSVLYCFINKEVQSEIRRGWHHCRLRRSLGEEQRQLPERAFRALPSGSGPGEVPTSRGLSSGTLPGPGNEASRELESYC
In short: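 cAMP accumulation measured by competitive HTRF after 30 min incubation of polypeptides with 5000 receptor-expressing CHO-K1 cells/well at 37°C. Percent of maximal response versus concentration fitted to a four-parameter logistic to give relative EC50.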

[1] = Pharmacokinetics in mice after single intravenous injection; set-up: species or system C57 mice; conditions: male, C57, mouse, in vivo, iv
In short: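 Plasma concentrations were measured by positive-mode ESI LC-MS/MRM, with verapamil as internal standard, at time points from 5 min to 72 h. Samples came from three male C57 mice per compound, aged 4-6 weeks, dosed once intravenously with 200 nmol/kg in 1×PBS; PK parameters were derived with PKSolver.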

Compound	EC50 (human GLP-1R) [nM]	EC50 (human GIPR) [nM]	clearance [1] [mL/min/kg]	half-life [1] [h]
CC[C@H](C)[C@H](NC(=O)[C@H](CO)NC(=O)[C@H](Cc1ccc(O)cc1)NC(=O)[C@H](CC(=O)O)NC(=O)[C@H](CO)NC(=O)[C@@H](NC(=O)[C@H](Cc1ccccc1)NC(=O)[C@@H](NC(=O)CNC(=O)[C@H](CCC(N)=O)NC(=O)C(C)(C)NC(=O)[C@@H](N)Cc1c[nH]cn1)[C@@H](C)O)[C@@H](C)O)C(=O)N[C@@H](CC(C)C)C(=O)N[C@@H](CC(C)C)C(=O)N[C@@H](CCC(=O)O)C(=O)N[C@@H](CCCCNC(=O)COCCOCCNC(=O)COCCOCCNC(=O)CC[C@H](NC(=O)CCCCCCCCCCCCCCCCCCC(=O)O)C(=O)O)C(=O)N[C@@H](CCCCN)C(=O)N[C@@H](C)C(=O)N[C@@H](C)C(=O)N[C@@H](CCC(N)=O)C(=O)N[C@@H](CCC(=O)O)C(=O)N[C@@H](Cc1ccccc1)C(=O)N[C@H](C(=O)N[C@@H](CCC(=O)O)C(=O)N[C@@H](Cc1c[nH]c2ccccc12)C(=O)N[C@@H](CC(C)C)C(=O)N[C@@H](CC(C)C)C(=O)N[C@@H](C)C(=O)NCC(=O)NCC(=O)N1CCC[C@H]1C(=O)N[C@@H](CO)C(=O)N[C@@H](CO)C(=O)NCC(=O)N[C@@H](C)C(=O)N1CCC[C@H]1C(=O)N1CCC[C@H]1C(=O)N1CCC[C@H]1C(=O)N[C@@H](CO)C(N)=O)C(C)C [Compound 0154] (H-H[Aib]QGTFTSDYSILLEK([AEEA-AEEA-γGlu-C20 diacid])KAAQEFVEWLLAGGPSSGAPPPS-NH2)	0.033			
CC(C)C[C@H](NC(=O)[C@H](CC(C)C)NC(=O)[C@H](Cc1c[nH]c2ccccc12)NC(=O)[C@H](CCC(=O)O)NC(=O)[C@@H](NC(=O)[C@H](Cc1ccccc1)NC(=O)[C@H](CCC(=O)O)NC(=O)[C@H](CCC(N)=O)NC(=O)[C@H](C)NC(=O)[C@H](C)NC(=O)[C@H](CCCCN)NC(=O)[C@H](CCCCNC(=O)COCCOCCNC(=O)COCCOCCNC(=O)CC[C@H](NC(=O)CCCCCCCCCCCCCCCCCCC(=O)O)C(=O)O)NC(=O)[C@H](CCC(=O)O)NC(=O)[C@H](CC(C)C)NC(=O)C(C)(C)NC(=O)[C@H](CCCCN)NC(=O)[C@H](CO)NC(=O)[C@H](Cc1ccc(O)cc1)NC(=O)[C@H](CC(=O)O)NC(=O)[C@H](CO)NC(=O)[C@@H](NC(=O)[C@H](Cc1ccccc1)NC(=O)[C@@H](NC(=O)CNC(=O)[C@H](Cc1c[nH]cn1)NC(=O)C(C)(C)NC(=O)[C@@H](N)Cc1c[nH]cn1)[C@@H](C)O)[C@@H](C)O)C(C)C)C(=O)N[C@@H](C)C(=O)NCC(=O)NCC(=O)N1CCC[C@H]1C(=O)N[C@@H](CO)C(=O)N[C@@H](CO)C(=O)NCC(=O)N[C@@H](C)C(=O)N1CCC[C@H]1C(=O)N1CCC[C@H]1C(=O)N1CCC[C@H]1C(=O)N[C@@H](CO)C(N)=O [Compound 0107]	0.016			
CC[C@H](C)[C@H](NC(=O)[C@H](CO)NC(=O)[C@H](CC(C)C)NC(=O)[C@H](CC(=O)O)NC(=O)[C@H](CO)NC(=O)[C@@H](NC(=O)[C@H](Cc1ccccc1)NC(=O)[C@@H](NC(=O)CNC(=O)[C@H](Cc1c[nH]cn1)NC(=O)C(C)(C)NC(=O)[C@@H](N)Cc1c[nH]cn1)[C@@H](C)O)[C@@H](C)O)C(=O)N[C@@H](CC(C)C)C(=O)N[C@@H](CC(C)C)C(=O)N[C@@H](CCC(=O)O)C(=O)N[C@@H](CCCCNC(=O)COCCOCCNC(=O)COCCOCCNC(=O)CC[C@H](NC(=O)CCCCCCCCCCCCCCCCCCC(=O)O)C(=O)O)C(=O)N[C@@H](CCCCN)C(=O)N[C@@H](C)C(=O)N[C@@H](C)C(=O)NC1(C(=O)N[C@@H](CCC(=O)O)C(=O)N[C@@H](Cc2ccccc2)C(=O)N[C@H](C(=O)N[C@@H](CCC(=O)O)C(=O)N[C@@H](Cc2c[nH]c3ccccc23)C(=O)N[C@@H](CC(C)C)C(=O)N[C@@H](CC(C)C)C(=O)N[C@@H](C)C(=O)N[C@H](CCC(=O)O)C(=O)NCC(=O)N2CCC[C@H]2C(=O)N[C@@H](CO)C(=O)N[C@@H](CO)C(=O)NCC(=O)N[C@@H](C)C(=O)N2CCC[C@H]2C(=O)N2CCC[C@H]2C(=O)N2CCC[C@H]2C(=O)N[C@@H](CO)C(N)=O)C(C)C)CC1 [Compound 0146]	0.033	0.009		
CC[C@H](C)[C@H](NC(=O)[C@H](CO)NC(=O)[C@H](CC(C)C)NC(=O)[C@H](CC(=O)O)NC(=O)[C@H](CO)NC(=O)[C@@H](NC(=O)[C@H](Cc1ccccc1)NC(=O)[C@@H](NC(=O)CNC(=O)[C@H](Cc1c[nH]cn1)NC(=O)C(C)(C)NC(=O)[C@@H](N)Cc1c[nH]cn1)[C@@H](C)O)[C@@H](C)O)C(=O)N[C@@H](CC(C)C)C(=O)N[C@@H](CC(C)C)C(=O)N[C@@H](CCC(=O)O)C(=O)N[C@@H](CCCCNC(=O)COCCOCCNC(=O)COCCOCCNC(=O)CC[C@H](NC(=O)CCCCCCCCCCCCCCCCCCC(=O)O)C(=O)O)C(=O)N[C@@H](CCCCN)C(=O)N[C@@H](C)C(=O)N[C@@H](C)C(=O)N[C@@H](CCC(N)=O)C(=O)N[C@@H](CCC(=O)O)C(=O)N[C@@H](Cc1ccccc1)C(=O)N[C@H](C(=O)N[C@@H](CCC(=O)O)C(=O)N[C@@H](Cc1c[nH]c2ccccc12)C(=O)N[C@@H](CC(C)C)C(=O)N[C@@H](CC(C)C)C(=O)N[C@@H](C)C(=O)N[C@H](CCC(=O)O)C(=O)NCC(=O)N1CCC[C@H]1C(=O)N[C@@H](CO)C(=O)N[C@@H](CO)C(=O)NCC(=O)N[C@@H](C)C(=O)N1CCC[C@H]1C(=O)N1CCC[C@H]1C(=O)N1CCC[C@H]1C(=O)N[C@@H](CO)C(N)=O)C(C)C [Compound 0144]	0.035		0.114	9.7
CC(C)C[C@H](NC(=O)[C@H](CC(C)C)NC(=O)[C@H](Cc1c[nH]c2ccccc12)NC(=O)[C@H](CCC(=O)O)NC(=O)[C@@H](NC(=O)[C@H](Cc1ccccc1)NC(=O)[C@H](CCC(=O)O)NC(=O)[C@H](CCC(N)=O)NC(=O)[C@H](C)NC(=O)C(C)(C)NC(=O)[C@H](CCCCN)NC(=O)[C@H](CCCCNC(=O)COCCOCCNC(=O)COCCOCCNC(=O)CC[C@H](NC(=O)CCCCCCCCCCCCCCCCCCC(=O)O)C(=O)O)NC(=O)[C@H](CCC(=O)O)NC(=O)[C@H](CC(C)C)NC(=O)[C@H](Cc1ccc(O)cc1)NC(=O)[C@H](CCCCN)NC(=O)[C@H](CO)NC(=O)[C@H](Cc1ccc(O)cc1)NC(=O)[C@H](CC(=O)O)NC(=O)[C@H](CO)NC(=O)[C@@H](NC(=O)[C@H](Cc1ccccc1)NC(=O)[C@@H](NC(=O)CNC(=O)[C@H](Cc1c[nH]cn1)NC(=O)C(C)(C)NC(=O)[C@@H](N)Cc1c[nH]cn1)[C@@H](C)O)[C@@H](C)O)C(C)C)C(=O)N[C@@H](C)C(=O)NCC(=O)NCC(=O)N1CCC[C@H]1C(=O)N[C@@H](CO)C(=O)N[C@@H](CO)C(=O)NCC(=O)N[C@@H](C)C(=O)N1CCC[C@H]1C(=O)N1CCC[C@H]1C(=O)N1CCC[C@H]1C(=O)N[C@@H](CO)C(N)=O [Compound 0110] (H-H[Aib]HGTFTSDYSKYLEK([AEEA-AEEA-γGlu-C20 diacid])K[Aib]AQEFVEWLLAGGPSSGAPPPS-NH2)	0.016			
CC[C@H](C)[C@H](NC(=O)[C@H](CO)NC(=O)[C@H](CC(C)C)NC(=O)[C@H](CC(=O)O)NC(=O)[C@H](CO)NC(=O)[C@@H](NC(=O)[C@H](Cc1ccccc1)NC(=O)[C@@H](NC(=O)CNC(=O)[C@H](Cc1c[nH]cn1)NC(=O)C(C)(C)NC(=O)[C@@H](N)Cc1c[nH]cn1)[C@@H](C)O)[C@@H](C)O)C(=O)N[C@@H](CC(C)C)C(=O)N[C@@H](CC(C)C)C(=O)N[C@@H](CCC(=O)O)C(=O)N[C@@H](CCCCNC(=O)COCCOCCNC(=O)COCCOCCNC(=O)CC[C@H](NC(=O)CCCCCCCCCCCCCCCCCCC(=O)O)C(=O)O)C(=O)N[C@@H](CCCCN)C(=O)N[C@@H](C)C(=O)N[C@@H](C)C(=O)NC1(C(=O)N[C@@H](CCC(=O)O)C(=O)N[C@@H](Cc2ccccc2)C(=O)N[C@H](C(=O)N[C@@H](CCC(=O)O)C(=O)N[C@@H](Cc2c[nH]c3ccccc23)C(=O)N[C@@H](CC(C)C)C(=O)N[C@@H](CC(C)C)C(=O)N[C@@H](C)C(=O)N[C@H](CCC(=O)O)C(=O)NCC(=O)N2CCC[C@H]2C(=O)N[C@@H](CO)C(=O)N[C@@H](CO)C(=O)NCC(=O)N[C@@H](C)C(=O)N2CCC[C@H]2C(=O)N2CCC[C@H]2C(=O)N2CCC[C@H]2C(=O)N[C@@H](CO)C(N)=O)C(C)C)CCC1 [Compound 0147]	0.035	0.005		
